Legend:
NCI-H460 [1] = assay: Anticancer activity against human NCI-H460 cells after 48 hrs by MTT assay; type: functional, cell-based; conditions: NCI-H460, 48 h
PC-3 [2] = assay: Anticancer activity against human PC3 cells after 48 hrs by MTT assay; type: functional, cell-based; conditions: PC-3, 48 h
HT-29 [3] = assay: Anticancer activity against human HT-29 cells after 48 hrs by MTT assay; type: functional, cell-based; conditions: HT-29, 48 h
B16 [4] = assay: Anticancer activity against mouse B16 cells after 48 hrs by MTT assay; type: functional, cell-based; conditions: B16, 48 h
B16 [5] = assay: Growth inhibition of mouse B16 cells at 100 uM after 48 hrs by MTT assay; type: functional; conditions: B16, 48 h, read-out: GI
HT-29 [6] = assay: Growth inhibition of human HT-29 cells at 100 uM after 48 hrs by MTT assay; type: functional; conditions: HT-29, 48 h, read-out: GI
PC-3 [7] = assay: Growth inhibition of human PC3 cells at 100 uM after 48 hrs by MTT assay; type: functional; conditions: PC-3, 48 h, read-out: GI
NCI-H460 [8] = assay: Growth inhibition of human NCI-H460 cells at 100 uM after 48 hrs by MTT assay; type: functional; conditions: NCI-H460, 48 h, read-out: GI

Compound	IC50 (NCI-H460 [1]) [µM]	IC50 (PC-3 [2]) [µM]	IC50 (HT-29 [3]) [µM]	IC50 (B16 [4]) [µM]	inhibition of growth at 100 µM (B16 [5]) [%]	inhibition of growth at 100 µM (HT-29 [6]) [%]	inhibition of growth at 100 µM (PC-3 [7]) [%]	inhibition of growth at 100 µM (NCI-H460 [8]) [%]
CC1(C)Cc2c(ccc(C(=O)/C=C/c3ccccc3)c2OCc2ccccc2)O1	> 100	> 100	> 100	> 100	–	–	–	–
CC1(C)Cc2c(ccc(C(=O)/C=C/c3ccc(F)cc3)c2OCc2ccccc2)O1	75.8	44.2	23	> 100	–	–	–	–
CC1(C)Cc2c(ccc(C(=O)/C=C/c3ccc(Cl)cc3)c2OCc2ccccc2)O1	> 100	> 100	> 100	–	< 10	–	–	–
CC1(C)Cc2c(ccc(C(=O)/C=C/c3ccc(Br)cc3)c2OCc2ccccc2)O1	> 100	> 50	–	–	< 10	< 10	–	–
COc1ccc(/C=C/C(=O)c2ccc3c(c2OCc2ccccc2)CC(C)(C)O3)cc1	> 100	48.9	–	> 100	–	< 10	–	–
CC1(C)Cc2c(ccc(C(=O)/C=C/c3ccc(Cl)cc3Cl)c2OCc2ccccc2)O1	> 100	–	> 100	> 100	–	–	< 10	–
CC1(C)Cc2c(ccc(C(=O)/C=C/c3cn(-c4ccccc4)nc3-c3ccccc3)c2OCc2ccccc2)O1	–	> 100	> 100	> 100	–	–	–	< 10
Cc1ccc(-c2nn(-c3ccccc3)cc2/C=C/C(=O)c2ccc3c(c2OCc2ccccc2)CC(C)(C)O3)cc1	> 100	24.2	> 100	–	< 10	–	–	–
CC1(C)Cc2c(ccc(C(=O)/C=C/c3cn(-c4ccccc4)nc3-c3ccc(Cl)cc3)c2OCc2ccccc2)O1	> 100	26	> 100	–	< 10	–	–	–
COc1ccc(-c2nn(-c3ccccc3)cc2/C=C/C(=O)c2ccc3c(c2OCc2ccccc2)CC(C)(C)O3)cc1	> 100	18.4	> 100	–	< 10	–	–	–
CC1(C)Cc2c(ccc(C(=O)/C=C/c3cn(-c4ccccc4)nc3-c3ccc([N+](=O)[O-])cc3)c2OCc2ccccc2)O1	–	62.3	–	–	< 10	< 10	–	< 10
CC1(C)Cc2c(ccc(C(=O)/C=C/c3cn(-c4ccccc4)nc3-c3cccc([N+](=O)[O-])c3)c2OCc2ccccc2)O1	> 100	> 100	> 100	> 50	–	–	–	–
CC1(C)Cc2c(OCc3ccccc3)ccc(C(=O)/C=C/c3ccccc3)c2O1	> 100	–	–	30.3	–	< 10	< 10	–
CC1(C)Cc2c(OCc3ccccc3)ccc(C(=O)/C=C/c3ccc(F)cc3)c2O1	22.3	–	–	> 100	–	< 10	< 10	–
CC1(C)Cc2c(OCc3ccccc3)ccc(C(=O)/C=C/c3ccc(Cl)cc3)c2O1	–	> 100	–	> 100	–	< 10	–	< 10
CC1(C)Cc2c(OCc3ccccc3)ccc(C(=O)/C=C/c3ccc(Br)cc3)c2O1	> 100	> 100	> 100	–	< 10	–	–	–
COc1ccc(/C=C/C(=O)c2ccc(OCc3ccccc3)c3c2OC(C)(C)C3)cc1	> 100	13.5	–	–	< 10	< 10	–	–
CC1(C)Cc2c(OCc3ccccc3)ccc(C(=O)/C=C/c3ccc(Cl)cc3Cl)c2O1	–	> 100	–	–	< 10	< 10	–	< 10
CC1(C)Cc2c(OCc3ccccc3)ccc(C(=O)/C=C/c3cn(-c4ccccc4)nc3-c3ccccc3)c2O1	–	–	–	> 100	–	< 10	< 10	< 10
Cc1ccc(-c2nn(-c3ccccc3)cc2/C=C/C(=O)c2ccc(OCc3ccccc3)c3c2OC(C)(C)C3)cc1	–	> 100	–	> 100	–	< 10	–	< 10
CC1(C)Cc2c(OCc3ccccc3)ccc(C(=O)/C=C/c3cn(-c4ccccc4)nc3-c3ccc(Cl)cc3)c2O1	–	8.4	–	–	< 10	< 10	–	< 10
COc1ccc(-c2nn(-c3ccccc3)cc2/C=C/C(=O)c2ccc(OCc3ccccc3)c3c2OC(C)(C)C3)cc1	–	7.9	> 100	–	< 10	–	–	< 10
CC1(C)Cc2c(OCc3ccccc3)ccc(C(=O)/C=C/c3cn(-c4ccccc4)nc3-c3ccc([N+](=O)[O-])cc3)c2O1	> 100	> 100	> 100	> 100	–	–	–	–
CC1(C)Cc2c(OCc3ccccc3)ccc(C(=O)/C=C/c3cn(-c4ccccc4)nc3-c3cccc([N+](=O)[O-])c3)c2O1	> 100	5.9	–	–	< 10	< 10	–	–
COc1ccc(/C=C/C(=O)c2ccc(O)c3c2OC(C)(C)C3)cc1	–	48.4	–	–	–	–	–	–
CC1(C)Cc2c(O)ccc(C(=O)/C=C/c3cn(-c4ccccc4)nc3-c3ccc(Cl)cc3)c2O1	–	18	–	–	–	–	–	–
COc1ccc(-c2nn(-c3ccccc3)cc2/C=C/C(=O)c2ccc(O)c3c2OC(C)(C)C3)cc1	–	20.8	–	–	–	–	–	–
CC1(C)Cc2c(O)ccc(C(=O)/C=C/c3cn(-c4ccccc4)nc3-c3cccc([N+](=O)[O-])c3)c2O1	–	25.6	–	–	–	–	–	–
COc1cccc2c1C(=O)c1c(O)c3c(c(O)c1C2=O)C[C@@](O)(C(=O)CO)C[C@@H]3O[C@H]1C[C@H](N)[C@H](O)[C@H](C)O1 [DOXORUBICIN]	5.6	5.9	19.3	0.03	–	–	–	–
